Experimental data from ChEMBL document CHEMBL5131413, “Cytotoxic effects of the biflavonoids isolated from Selaginella trichoclada on MCF-7 cells and its potential mechanism” (Bioorg Med Chem Lett, 2022).
Calls of active or inactive are those of the source. The calls are words filed in the database; no cut-off is given here.

Assays:
Format in all cases: functional, cell-based
MCF7 [1] = assay: Cytotoxicity against human MCF7 cells measured after 24 hrs by MTT assay; conditions: MCF7, 24 h
MCF7 [2] = assay: Downregulation of ACSL4 gene in human MCF7 cells at 5 uM by heat map analysis
MCF7 [3] = assay: Downregulation of NOXO1 gene in human MCF7 cells at 5 uM by heat map analysis
MCF7 [4] = assay: Downregulation of NOXA1 gene in human MCF7 cells at 5 uM by heat map analysis
MCF7 [5] = assay: Downregulation of ACSL5 gene in human MCF7 cells at 5 uM by heat map analysis
MCF7 [6] = assay: Downregulation of STEAP3 gene in human MCF7 cells at 5 uM by heat map analysis
MCF7 [7] = assay: Downregulation of LPCAT3 gene in human MCF7 cells at 5 uM by heat map analysis
MCF7 [8] = assay: Downregulation of ATG7 gene in human MCF7 cells at 5 uM by heat map analysis
MCF7 [9] = assay: Downregulation of TP53 gene in human MCF7 cells at 5 uM by heat map analysis

Compound | IC50 (MCF7 [1]) | other results
Cc1c(O)cc2c(c1O)C(=O)C[C@H](c1ccc(Oc3cc(-c4cc(=O)c5c(O)cc(O)cc5o4)ccc3O)cc1)O2 | 32.2 µM | 
O=c1cc(-c2ccc(Oc3cc(-c4cc(=O)c5c(O)cc(O)cc5o4)ccc3O)cc2)oc2cc(O)cc(O)c12 [OCHNAFLAVONE] | 54.5 µM | 
O=c1[nH]cc(F)c(=O)[nH]1 [FLUOROURACIL] | 2.2 µM | 
COc1ccc(-c2cc(=O)c3c(O)cc(O)cc3o2)cc1-c1c(O)cc(O)c2c(=O)cc(-c3ccc(O)cc3)oc12 [BILOBETIN] | 26.5 µM | 
O=c1cc(-c2ccc(O)c(-c3c(O)cc(O)c4c(=O)cc(-c5ccc(O)cc5)oc34)c2)oc2cc(O)cc(O)c12 [AMENTOFLAVONE] | 75.4 µM | 
COc1cc(O)c2c(=O)cc(-c3ccc(O)c(-c4c(O)cc(O)c5c(=O)cc(-c6ccc(O)cc6)oc45)c3)oc2c1 [SEQUOIAFLAVONE] | 58.4 µM | 
COc1ccc(-c2cc(=O)c3c(O)cc(O)c(-c4cc(-c5cc(=O)c6c(O)cc(O)cc6o5)ccc4O)c3o2)cc1 [PODOCARPUSFLAVONE A] | 35.1 µM | 
COc1cc(O)c2c(=O)cc(-c3ccc(O)c(-c4c(O)cc5oc(-c6ccc(O)cc6)cc(=O)c5c4OC)c3)oc2c1 | 6.9 µM | inhibition (MCF7 [2]): Active; inhibition (MCF7 [3]): Active; inhibition (MCF7 [4]): Active; inhibition (MCF7 [5]): Active; inhibition (MCF7 [6]): Active; inhibition (MCF7 [7]): Active; inhibition (MCF7 [8]): Active; inhibition (MCF7 [9]): Active
O=C1CC(c2ccc(O)c(-c3c(O)cc4c(c3O)C(=O)CC(c3ccc(O)cc3)O4)c2)Oc2cc(O)cc(O)c21 (stereo not drawn) | 71.2 µM | 
O=C1C[C@H](c2ccc(Oc3cc(-c4cc(=O)c5c(O)cc(O)cc5o4)ccc3O)cc2)Oc2cc(O)cc(O)c21 | 7.7 µM | 
